Source: PubChem BioAssay (NCI)
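Growth conditions: 96-well plates. Treatment: test compound, 48 hours, 5 concentrations. Analysis: linear interpolation between bracketing concentrations; unreached endpoints set to highest concentration. Here, GI50 denotes the concentration required for 50% inhibition of growth. TGI denotes the concentration required for complete inhibition of growth.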

Key:
Experiment in all cases: growth of human tumour cells (NCI), 48 h
786-0 renal = tested on: 786-0 renal
A498 renal = tested on: A498 renal
A549 NSCLC = tested on: A549 NSCLC
ACHN renal = tested on: ACHN renal
BT-549 breast = tested on: BT-549 breast
CAKI-1 renal = tested on: CAKI-1 renal
CCRF-CEM leukemia = tested on: CCRF-CEM leukemia
COLO 205 colon = tested on: COLO 205 colon
DU-145 prostate = tested on: DU-145 prostate
HCC-2998 colon = tested on: HCC-2998 colon
HCT-116 colon = tested on: HCT-116 colon
HCT-15 colon = tested on: HCT-15 colon
HL-60(TB) leukemia = tested on: HL-60(TB) leukemia
HOP-62 NSCLC = tested on: HOP-62 NSCLC
HOP-92 NSCLC = tested on: HOP-92 NSCLC
HS 578T breast = tested on: HS 578T breast
HT29 colon = tested on: HT29 colon
IGROV1 ovarian = tested on: IGROV1 ovarian
K-562 leukemia = tested on: K-562 leukemia
KM12 colon = tested on: KM12 colon
LOX IMVI melanoma = tested on: LOX IMVI melanoma
M14 melanoma = tested on: M14 melanoma
MALME-3M melanoma = tested on: MALME-3M melanoma
MCF7 breast = tested on: MCF7 breast
MDA-MB-231 breast = tested on: MDA-MB-231 breast
MDA-MB-435 = tested on: MDA-MB-435
MOLT-4 leukemia = tested on: MOLT-4 leukemia
NCI-H226 lung = tested on: NCI-H226 lung
NCI-H23 lung = tested on: NCI-H23 lung

`CCN(Cc1ccccc1OC)c1ccc(CO)c(Cl)c1` was tested, and the GI50 (786-0 renal) was 13 µM, the TGI (786-0 renal) was 26.2 µM and the GI50 (A498 renal) was 0.0454 µM. For the same molecule, the TGI (A498 renal) was 0.13 µM, the GI50 (A549 NSCLC) was 4.26 µM and the TGI (A549 NSCLC) was 19.8 µM. For the same molecule, the GI50 (ACHN renal) was 14.1 µM, the TGI (ACHN renal) was 27.4 µM and the GI50 (BT-549 breast) was 12.8 µM. For the same molecule, the TGI (BT-549 breast) was 26 µM, the GI50 (CAKI-1 renal) was 5.62 µM and the TGI (CAKI-1 renal) was 23.9 µM. It also gave a GI50 (CCRF-CEM leukemia) of 19 µM, a TGI (CCRF-CEM leukemia) of 60.3 µM and a GI50 (COLO 205 colon) of 4.81 µM. For the same molecule, the TGI (COLO 205 colon) was 14.4 µM, the GI50 (DU-145 prostate) was 15.8 µM and the TGI (DU-145 prostate) was 33.4 µM. It also gave a GI50 (HCC-2998 colon) of 10.7 µM, a TGI (HCC-2998 colon) of 24.5 µM and a GI50 (HCT-116 colon) of 0.215 µM. The TGI (HCT-116 colon) was 8.77 µM, the GI50 (HCT-15 colon) was 7.11 µM and the TGI (HCT-15 colon) was 23.6 µM. It also gave a GI50 (HL-60(TB) leukemia) of 11.8 µM, a TGI (HL-60(TB) leukemia) of 34.9 µM and a GI50 (HOP-62 NSCLC) of 3.16 µM. The TGI (HOP-62 NSCLC) was 16.4 µM, the GI50 (HOP-92 NSCLC) was 1.66 µM and the TGI (HOP-92 NSCLC) was 8.51 µM. The GI50 (HS 578T breast) was 13.4 µM, the TGI (HS 578T breast) was 37.2 µM and the GI50 (HT29 colon) was 4.7 µM. It also gave a TGI (HT29 colon) of 18 µM, a GI50 (IGROV1 ovarian) of 0.0502 µM and a TGI (IGROV1 ovarian) of 0.337 µM. It also gave a GI50 (K-562 leukemia) of 2.16 µM, a TGI (K-562 leukemia) of 12.1 µM and a GI50 (KM12 colon) of 11 µM. For the same molecule, the TGI (KM12 colon) was 25.8 µM, the GI50 (LOX IMVI melanoma) was 15.1 µM and the TGI (LOX IMVI melanoma) was 29.6 µM. For the same molecule, the GI50 (M14 melanoma) was 12.4 µM, the TGI (M14 melanoma) was 25.5 µM and the GI50 (MALME-3M melanoma) was 12.9 µM. The TGI (MALME-3M melanoma) was 27.5 µM, the GI50 (MCF7 breast) was 0.566 µM and the TGI (MCF7 breast) was 12.3 µM. It also gave a GI50 (MDA-MB-231 breast) of 11.1 µM, a TGI (MDA-MB-231 breast) of 24.9 µM and a GI50 (MDA-MB-435) of 3.06 µM. For the same molecule, the TGI (MDA-MB-435) was 12.4 µM, the GI50 (MOLT-4 leukemia) was 18.1 µM and the TGI (MOLT-4 leukemia) was 46.2 µM. For the same molecule, the GI50 (NCI-H226 lung) was 0.0487 µM, the TGI (NCI-H226 lung) was 0.179 µM and the GI50 (NCI-H23 lung) was 8.96 µM.
